In patent publication US9480758B2, “Diagnostic agents selective against metalloproteases” (BRACCO IMAGING S.P.A., priority 2008, dated 2016):
Like-named read-outs stand apart in the source and are kept apart here.

What was measured:
[1] = molecular target: T1, MMP-8 (Homo sapiens, UniProt P22894); experiment: MMP inhibition assay, fluorogenic substrate FS-6; type: biochemical; settings: MMP-8 1.5 nM, inhibitor incubated 4 h at 25° C., substrate Mca-Lys-Pro-Leu-Gly-Leu-Dap(Dnp)-Ala-Arg-NH2 2 μM
T1 construct: purchased Calbiochem
Experimental: (§1) As reported therein, the inhibitory activity of the compounds of the invention was evaluated on the known fluorogenic substrate (Mca-Lys-Pro-Leu-Gly-Leu-Dpa-Ala-Arg-NH2), shortly referred to as FS-6 (see, as a reference, U. Neumann, Analytical Biochem. 2004, 328, 166-173).
(§2) Recombinant human progelatinase A (pro-MMP-2) and B (pro-MMP-9) from transfected mouse myeloma cells, MMP-16 and MMP-14 catalytic domains were supplied by Prof. Gillian Murphy (Department of Oncology, University of Cambridge, UK). Pro-MMP-1, pro-MMP-8, pro-MMP-3 and pro-MMP-13 were purchased from Calbiochem, MMP-12 was furnished from RDSystems.
(§3) Pro-MMP-3 was activated with trypsin 5 μg/mL for 30 min at 37 C.° followed by soybean trypsin inhibitor (SBTI) 62 μg/mL.
(§4) For assay measurements, the inhibitor stock solutions (DMSO, 100 mM) were further diluted, at 7 different concentrations (0.01 nM-300 μM) for each MMP in the fluorimetric assay buffer (FAB: Tris 50 mM, pH=7.5, NaCl 150 mM, CaCl2 10 mM, Brij 35 0.05% and DMSO 1%). Activated enzyme (final concentration 2.9 nM for MMP-2, 2.7 nM for MMP-9, 1.5 nM for MMP-8, 0.3 nM for MMP-13, 5 nM for MMP-3, 1 nM for MMP-14cd, 15 nM for MMP-16cd and 2.0 nM for MMP-1, 1 nM for MMP12) and inhibitor solutions were incubated in the assay buffer for 4 h at 25° C. After the addition of 200 μM solution of the fluorogenic substrate Mca-Arg-Pro-Lys-Pro-Val-Glu-Nva-Trp-Arg-Lys(Dnp)-NH2 (Sigma) for MMP-3 and Mca-Lys-Pro-Leu-Gly-Leu-Dap(Dnp)-Ala-Arg-NH2 (Bachem) (Neumann, U.; Kubota, H.; Frei, K.; Ganu, V.; Leppert, D. Anal. Biochem. 2004, 328, 166) for all the other enzymes in DMSO (final concentration 2 μM), the hydrolysis was monitored every 15 sec. for 20 min. recording the increase in fluorescence (λex=325 nm, λem=395 nm) using a Molecular Device SpectraMax Gemini XS plate reader. The assays were performed in triplicate in a total volume of 200 μl per well in 96-well microtitre plates (Corning, black, NBS). Control wells lack inhibitor. The MMP inhibition activity was expressed in relative fluorescent units (RFU). Percent of inhibition was calculated from control reactions without the inhibitor. IC50 was determined using the formula: Vi/Vo=1/(1+[I]/IC50), where Vi is the initial velocity of substrate cleavage in the presence of the inhibitor at concentration [I] and Vo is the initial velocity in the absence of the inhibitor. Results were analyzed using SoftMax Pro software and GraFit software.

[2] = molecular target: T2, MMP-9 (Homo sapiens, UniProt P14780); experiment: MMP inhibition assay, fluorogenic substrate FS-6; type: biochemical; settings: MMP-9 2.7 nM, inhibitor incubated 4 h at 25° C., substrate Mca-Lys-Pro-Leu-Gly-Leu-Dap(Dnp)-Ala-Arg-NH2 2 μM
T2 construct: purchased supplied by Prof; Gillian Murphy (Department of Oncology, University of Cambridge, UK); host or cells: transfected mouse myeloma cells
Experimental: as §1, §2, §3, §4

[3] = molecular target: T3, MMP-3 (Homo sapiens, UniProt P08254); experiment: MMP inhibition assay, fluorogenic substrate; type: biochemical; settings: MMP-3 5 nM, inhibitor incubated 4 h at 25° C., substrate Mca-Arg-Pro-Lys-Pro-Val-Glu-Nva-Trp-Arg-Lys(Dnp)-NH2
T3 construct: purchased Calbiochem
Experimental: as §2, §3
as §4, with “The MMP inhibition activity was expressed in relative fluorescent units (RFU).” left out

[4] = molecular target: T4, MMP-12 (Homo sapiens, UniProt P39900); experiment: MMP inhibition assay, fluorogenic substrate FS-6; type: biochemical; settings: MMP12 1 nM, inhibitor incubated 4 h at 25° C., substrate Mca-Lys-Pro-Leu-Gly-Leu-Dap(Dnp)-Ala-Arg-NH2 2 μM
T4 construct: purchased RDSystems
Experimental: as §1, §2, §4

[5] = molecular target: T5, MMP-16 catalytic domain (Homo sapiens, UniProt P51512); experiment: MMP inhibition assay, fluorogenic substrate FS-6; type: biochemical; settings: MMP-16cd 15 nM, inhibitor incubated 4 h at 25° C., substrate Mca-Lys-Pro-Leu-Gly-Leu-Dap(Dnp)-Ala-Arg-NH2 2 μM
T5 construct: MMP-16 and MMP-14 catalytic domains were supplied by Prof; Gillian Murphy; purchased supplied by Prof; Gillian Murphy (Department of Oncology, University of Cambridge, UK)
Experimental: as §1, §2, §4

[6] = molecular target: MMP-13 (Homo sapiens, UniProt P45452); experiment: MMP inhibition assay, fluorogenic substrate FS-6; type: biochemical; settings: MMP-13 0.3 nM, inhibitor incubated 4 h at 25° C., substrate Mca-Lys-Pro-Leu-Gly-Leu-Dap(Dnp)-Ala-Arg-NH2 2 μM
Experimental: as §1, §2, §3, §4

[7] = molecular target: T6, MMP-14 catalytic domain (Homo sapiens, UniProt P50281); experiment: MMP inhibition assay, fluorogenic substrate FS-6; type: biochemical; settings: MMP-14cd 1 nM, inhibitor incubated 4 h at 25° C., substrate Mca-Lys-Pro-Leu-Gly-Leu-Dap(Dnp)-Ala-Arg-NH2 2 μM
T6 construct: MMP-16 and MMP-14 catalytic domains were supplied by Prof; Gillian Murphy; purchased supplied by Prof; Gillian Murphy (Department of Oncology, University of Cambridge, UK)
Experimental: as §1, §2, §4

[8] = molecular target: T7, MMP-2 (Homo sapiens, UniProt P08253); experiment: MMP inhibition assay, fluorogenic substrate FS-6; type: biochemical; parameters: purchased supplied by Prof; Gillian Murphy (Department of Oncology, University of Cambridge, UK); host or cells: transfected mouse myeloma cells; settings: activated pro-MMP-2 2.9 nM, inhibitor incubated 4 h at 25° C., substrate Mca-Lys-Pro-Leu-Gly-Leu-Dap(Dnp)-Ala-Arg-NH2 2 μM
T7 sequence (P08253 110-660): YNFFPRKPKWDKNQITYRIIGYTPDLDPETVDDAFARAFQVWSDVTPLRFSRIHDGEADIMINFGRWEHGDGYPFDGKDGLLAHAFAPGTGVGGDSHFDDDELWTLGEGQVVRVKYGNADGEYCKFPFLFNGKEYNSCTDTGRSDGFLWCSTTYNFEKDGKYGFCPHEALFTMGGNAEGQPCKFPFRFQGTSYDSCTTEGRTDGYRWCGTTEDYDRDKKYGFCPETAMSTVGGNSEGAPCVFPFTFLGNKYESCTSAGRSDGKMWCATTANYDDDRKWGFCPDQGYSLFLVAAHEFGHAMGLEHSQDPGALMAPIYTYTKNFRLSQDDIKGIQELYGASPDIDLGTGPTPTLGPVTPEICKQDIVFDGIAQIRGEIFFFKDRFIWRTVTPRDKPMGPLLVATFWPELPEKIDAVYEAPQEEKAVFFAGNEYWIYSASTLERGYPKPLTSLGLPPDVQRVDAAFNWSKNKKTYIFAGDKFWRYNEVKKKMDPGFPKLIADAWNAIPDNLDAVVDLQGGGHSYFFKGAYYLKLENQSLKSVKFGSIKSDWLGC
Experimental: as §1, §2, §3, §4

[9] = molecular target: MMP-14 (Homo sapiens, UniProt P50281); settings: isolated enzyme, fluorogenic substrate FS-1, literature value; cited from earlier work
[10] = molecular target: T7, MMP-2; settings: isolated enzyme, fluorogenic substrate FS-1, literature value; cited from earlier work

T3 sequence (P08254 100-477): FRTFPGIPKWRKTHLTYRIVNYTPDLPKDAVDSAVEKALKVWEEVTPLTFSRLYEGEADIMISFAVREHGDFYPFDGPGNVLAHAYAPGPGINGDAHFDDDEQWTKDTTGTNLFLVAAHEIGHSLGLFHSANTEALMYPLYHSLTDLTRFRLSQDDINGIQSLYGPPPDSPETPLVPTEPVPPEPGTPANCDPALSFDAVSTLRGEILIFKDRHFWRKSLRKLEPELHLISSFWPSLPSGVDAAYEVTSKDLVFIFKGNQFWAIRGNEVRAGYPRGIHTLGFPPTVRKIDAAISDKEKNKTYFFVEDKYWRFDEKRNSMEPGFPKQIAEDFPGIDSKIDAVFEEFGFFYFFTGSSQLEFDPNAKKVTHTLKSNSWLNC
T4 sequence (P39900 106-470): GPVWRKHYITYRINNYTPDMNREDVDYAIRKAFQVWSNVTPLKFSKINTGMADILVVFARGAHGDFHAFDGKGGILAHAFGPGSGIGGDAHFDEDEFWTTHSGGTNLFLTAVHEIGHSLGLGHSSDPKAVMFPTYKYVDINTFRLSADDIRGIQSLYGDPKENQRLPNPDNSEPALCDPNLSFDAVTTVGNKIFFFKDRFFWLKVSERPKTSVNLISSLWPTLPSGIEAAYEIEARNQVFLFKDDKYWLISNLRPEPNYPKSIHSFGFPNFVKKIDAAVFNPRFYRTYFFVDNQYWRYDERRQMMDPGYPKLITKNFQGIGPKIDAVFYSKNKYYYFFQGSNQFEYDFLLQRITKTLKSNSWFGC
T5 sequence (P51512 120-292 limits assumed): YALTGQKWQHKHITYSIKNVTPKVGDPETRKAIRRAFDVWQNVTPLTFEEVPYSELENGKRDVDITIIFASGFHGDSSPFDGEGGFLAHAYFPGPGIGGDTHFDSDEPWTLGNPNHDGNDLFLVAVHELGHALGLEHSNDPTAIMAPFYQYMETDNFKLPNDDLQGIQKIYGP
T2 sequence (P14780 107-707 limits assumed): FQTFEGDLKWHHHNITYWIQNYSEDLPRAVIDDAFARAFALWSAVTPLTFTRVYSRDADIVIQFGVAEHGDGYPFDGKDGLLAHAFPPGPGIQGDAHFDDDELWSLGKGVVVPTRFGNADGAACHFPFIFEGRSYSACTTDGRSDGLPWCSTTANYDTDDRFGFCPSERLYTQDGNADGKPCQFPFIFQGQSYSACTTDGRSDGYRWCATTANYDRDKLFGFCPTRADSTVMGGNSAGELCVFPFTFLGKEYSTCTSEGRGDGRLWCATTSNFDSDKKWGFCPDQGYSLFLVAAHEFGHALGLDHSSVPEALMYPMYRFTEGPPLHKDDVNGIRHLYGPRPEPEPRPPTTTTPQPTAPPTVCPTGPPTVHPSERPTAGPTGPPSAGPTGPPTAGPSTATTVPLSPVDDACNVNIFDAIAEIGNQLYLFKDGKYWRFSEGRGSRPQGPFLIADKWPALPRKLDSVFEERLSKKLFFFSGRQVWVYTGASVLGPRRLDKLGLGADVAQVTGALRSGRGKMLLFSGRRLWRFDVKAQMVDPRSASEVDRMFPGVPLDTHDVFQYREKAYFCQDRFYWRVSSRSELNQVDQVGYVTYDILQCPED
T1 sequence (P22894 101-467): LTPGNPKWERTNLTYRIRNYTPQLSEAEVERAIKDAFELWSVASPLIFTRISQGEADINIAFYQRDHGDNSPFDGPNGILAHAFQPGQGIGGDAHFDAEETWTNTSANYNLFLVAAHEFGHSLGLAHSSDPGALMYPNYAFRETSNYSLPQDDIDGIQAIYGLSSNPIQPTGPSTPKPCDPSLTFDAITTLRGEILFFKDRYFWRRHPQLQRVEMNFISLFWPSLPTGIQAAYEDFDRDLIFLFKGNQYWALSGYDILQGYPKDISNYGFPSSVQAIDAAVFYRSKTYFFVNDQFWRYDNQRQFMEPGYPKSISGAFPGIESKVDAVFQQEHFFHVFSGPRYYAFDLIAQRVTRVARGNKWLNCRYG

Row | IC50 [1] [nM] | IC50 [2] [nM] | IC50 [3] [nM] | IC50 [4] [nM] | IC50 [5] [nM] | IC50 [6] [nM] | IC50 [7] [nM] | IC50 [8] [nM] | Compound | IC50 [9] [nM] | IC50 [10] [nM]
1 | 3.2 ± 0.2 | 1.7 ± 0.14 | 39 ± 3.3 | 0.4 ± 0.05 | 10 ± 1 |  |  |  | COc1ccc(-c2ccc(S(=O)(=O)N(OCCOCCN3CCNCC3)[C@H](CCNC(=O)OCc3ccccc3)C(=O)NO)cc2)cc1 [1j] |  | 
2 |  | 187 ± 11 | 1990 ± 90 | 22 ± 4 | 1260 ± 59 | 24.4 ± 2.5 | 1700 ± 305 | 47.9 ± 4.9 | CCC(=O)N1CCN(CCOCCON([C@H](CCNC(=O)OCc2ccccc2)C(=O)NO)S(=O)(=O)c2ccc(-c3ccc(OC)cc3)cc2)CC1 [1k] |  | 
3 |  |  |  |  |  | 82 ± 13 |  | 56 ± 8 | CC[N+]1=C(/C=C/C=C/C=C2/N(CCCCCC(=O)NCC[C@H](C(=O)NO)N(OC(C)C)S(=O)(=O)c3ccc(-c4ccc(OC)cc4)cc3)c3ccc4c(S(=O)(=O)O)cc(S(=O)(=O)O)cc4c3C2(C)C)C(C)(C)c2c1ccc1c(S(=O)(=O)[O-])cc(S(=O)(=O)O)cc21 [Compound 5] |  | 
4 |  |  |  |  |  | 50 ± 4.3 |  | 73.5 ± 5.7 | CC[N+]1=C(/C=C/C=C/C=C2\N(CCCCCC(=O)N3CCN(CCOCCON([C@H](CCNC(=O)OCc4ccccc4)C(=O)O)S(=O)(=O)c4ccc(-c5ccc(OC)cc5)cc4)CC3)c3ccc4c(S(=O)(=O)[O-])cc(S(=O)(=O)O)cc4c3C2(C)C)C(C)(C)c2c1ccc1c(S(=O)(=O)O)cc(S(=O)(=O)O)cc21 [Compound 6a] |  | 
5 | 6.5 ± 0.6 | 3.3 ± 0.1 | 53 ± 4.5 | 0.67 ± 0.06 | 30 ± 2.3 | 0.17 ± 0.02 | 67 ± 3.4 | 0.6 ± 0.06 | CC[N+]1=C(/C=C/C=C/C=C2/N(CCCCCC(=O)N3CCN(CCOCCON([C@H](CCNC(=O)OCc4ccccc4)C(=O)NO)S(=O)(=O)c4ccc(-c5ccc(OC)cc5)cc4)CC3)c3ccc4c(S(=O)(=O)O)cc(S(=O)(=O)O)cc4c3C2(C)C)C(C)(C)c2c1ccc1c(S(=O)(=O)[O-])cc(S(=O)(=O)O)cc21 [Compound 6b] |  | 
6 |  |  |  |  |  |  |  |  | CC(C)ON(C(CCNC(=O)OCc1ccccc1)C(=O)NO)S(=O)(=O)c1ccc(-c2ccccc2)cc1 (centres unmarked) [compound (5b)] | 7.7 | 0.41
